Assay results reported in US10335454B2, “Combination and use” (HELPERBY THERAPEUTICS LIMITED, priority 2014, dated 2019).

Columns and labels:
[1] = system: log phase NDM-1 E. coli (BAA2469 strain); assay: Time-kill of suloctidil and colistin, alone and in combination, against log phase NDM-1 E. coli; format: cell-based; settings: FIGS. 28 to 34
Procedure: Materials and Methods • Bacterial strain used: BAA2469 strain of NDM-1 E. coli • Growth of bacteria: Log phase growth of bacteria was carried out according to methods known in the art.
(§1) (i) Suloctidil was obtained from a commercial source and dissolved in DMSO to make a stock concentration of 10 mg/ml.
(§2) (ii) Colistin was obtained from a commercial source at a concentration of 20 mg/ml.
Both suloctidil and colistin were then added to 96 well plates either alone or in the combinations shown below in Table 2.
(§3) The overnight culture was diluted with nutrient broth (Oxoid) to 10^7 CFU/ml and 280 μl and 290 μl of the culture was added to each combination well and single agent well, respectively, to make a final […] of 300 μl. Incubation of the compounds with the bacterial suspension was carried out for 24 hours. At 0, 2, 4, 7 and 25 hours, CFU counts were performed to measure the kill effects of the drug combination.

[2] = system: log phase NDM-1 Klebsiella pneumoniae (NCTC 13443 strain); assay: Time-kill of suloctidil and colistin, alone and in combination, against log phase NDM-1 Klebsiella pneumoniae; format: cell-based; settings: for kill effect (CFU counts): colistin alone 16 μg/ml, FIG. 19
Procedure: The synergistic effect of suloctidil in combination with colistin was tested against log phase NDM-1 Klebsiella pneumoniae using time-kill methods over a period of 24 hours.
Bacterial strain used: NCTC 13443 strain of NDM-1 Klebsiella pneumoniae
Growth of bacteria: Log phase growth of the bacteria was carried out according to methods known in the art.
as §1, §2
Both suloctidil and colistin were then added to 96 well plates either alone or in the combinations shown below in Table 1.
as §3

Row | Compound | antimicrobial effect when used alone ([1]; colistin alone at 8, 4, 2 and 1 μg/ml) | kill effect (CFU counts) ([2]; after 7 hours) | kill effect (CFU counts) ([2]; after 25 hours) | antimicrobial effect when used alone ([2]; colistin alone at 8 and 4 μg/ml, time-kill, FIGS. 20, 21, 24, 25 and 27) | duration of the antimicrobial effect ([2]; colistin alone at 32 and 16 μg/ml, time-kill) | antimicrobial effect when used alone ([2]; colistin alone at 32 and 16 μg/ml, time-kill, FIGS. 18, 19, 22, 23 and 26) | antimicrobial effect when used alone ([1]; suloctidil alone at 16, 8 and 4 μg/ml) | antimicrobial effect when used alone ([2]; suloctidil alone at 32, 16, 8 and 4 μg/ml, time-kill, FIGS. 18 to 27)
1 | colistin | no antimicrobial effect | complete kill | bacteria re-growth | no antimicrobial effect | not long term | antimicrobial effect |  | 
2 | CCCCCCCCNC(C)C(O)c1ccc(SC(C)C)cc1 (centres unmarked) [suloctidil] |  |  |  |  |  |  | no antimicrobial effect | no antimicrobial effect
